PubChem BioAssay (NCI)
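Compound exposure: 48 hours, 5 concentrations, 96-well plates. The concentration for full growth arrest is given as TGI.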

Experiments:
Experiment in all cases: inhibition of tumour cell growth, NCI panel, 48 h
BT-549 breast = test system: BT-549 breast
CAKI-1 renal = test system: CAKI-1 renal
HOP-92 NSCLC = test system: HOP-92 NSCLC
MCF7 breast = test system: MCF7 breast
MDA-MB-231 breast = test system: MDA-MB-231 breast
NCI-H23 lung = test system: NCI-H23 lung
NCI/ADR-RES ovarian = test system: NCI/ADR-RES ovarian
OVCAR-8 ovarian = test system: OVCAR-8 ovarian
SK-MEL-2 melanoma = test system: SK-MEL-2 melanoma
SK-MEL-5 melanoma = test system: SK-MEL-5 melanoma
SK-OV-3 ovarian = test system: SK-OV-3 ovarian
SNB-19 CNS = test system: SNB-19 CNS
SNB-75 CNS = test system: SNB-75 CNS
SW-620 colon = test system: SW-620 colon

| Structure (SMILES) | TGI (BT-549 breast) | TGI (CAKI-1 renal) | TGI (HOP-92 NSCLC) | TGI (MCF7 breast) | TGI (MDA-MB-231 breast) | TGI (NCI-H23 lung) | TGI (NCI/ADR-RES ovarian) | TGI (OVCAR-8 ovarian) | TGI (SK-MEL-2 melanoma) | TGI (SK-MEL-5 melanoma) | TGI (SK-OV-3 ovarian) | TGI (SNB-19 CNS) | TGI (SNB-75 CNS) | TGI (SW-620 colon) |
| --- | --- | --- | --- | --- | --- | --- | --- | --- | --- | --- | --- | --- | --- | --- |
| c1ccc(Nc2nn3c(CCCCCCCCc4nnc5sc(Nc6ccccc6)nn45)nnc3s2)cc1 | > 100 µM | > 100 µM | > 100 µM | 85.7 µM | > 100 µM | > 100 µM | > 100 µM | > 100 µM | > 100 µM | 24.6 µM | > 100 µM | > 100 µM | 75.5 µM | > 100 µM |
| CCOC1NC(=O)Oc2cc3ccccc3cc21 (centres undefined) | > 100 µM | – | 82.8 µM | > 100 µM | > 100 µM | > 100 µM | > 100 µM | > 100 µM | – | > 100 µM | > 100 µM | > 100 µM | > 100 µM | > 100 µM |
| O=c1c2cnccc2cc2c3ccccc3ccn12 | > 100 µM | > 100 µM | > 100 µM | > 100 µM | > 100 µM | > 100 µM | > 100 µM | > 100 µM | > 100 µM | > 100 µM | > 100 µM | > 100 µM | > 100 µM | > 100 µM |
| Nc1ccc2ccc(N3CCNCC3)nc2n1 | > 100 µM | > 100 µM | > 100 µM | > 100 µM | > 100 µM | > 100 µM | > 100 µM | > 100 µM | > 100 µM | – | > 100 µM | > 100 µM | > 100 µM | > 100 µM |
| CCCCc1ccc(Nc2nc(Cl)c3c(ncn3C3CC(Oc4ccc(C)cc4)C(COc4ccc(C)cc4)O3)n2)cc1 (centres undefined) | > 100 µM | > 100 µM | > 100 µM | > 100 µM | > 100 µM | > 100 µM | > 100 µM | > 100 µM | > 100 µM | > 100 µM | > 100 µM | > 100 µM | 99.2 µM | > 100 µM |
| C=C(C)[C@H]1C2=CC(C)=C(O2)[C@@H](O)[C@H](C(=C)C)CCC2=C[C@H]1OC2=O | > 100 µM | > 100 µM | > 100 µM | > 100 µM | > 100 µM | – | > 100 µM | > 100 µM | > 100 µM | > 100 µM | – | > 100 µM | > 100 µM | > 100 µM |
| CN(CCCNC(=O)c1nn(C)c2c1Cc1ccccc1-2)CCCNC(=O)c1nn(C)c2c1Cc1ccccc1-2 | 47.2 µM | 35.5 µM | 35 µM | 31.2 µM | 36.1 µM | 47.3 µM | > 68.9 µM | 46 µM | 32 µM | 29.8 µM | 34.1 µM | 26.4 µM | 31.5 µM | 27.9 µM |
| O=[N+]([O-])c1cc(F)ccc1S(=O)(=O)c1ccccc1 | > 10 µM | > 10 µM | > 10 µM | > 10 µM | > 10 µM | > 10 µM | > 10 µM | > 10 µM | > 10 µM | > 10 µM | > 10 µM | > 10 µM | > 10 µM | > 10 µM |
| COc1ccc2c(c1)NC1(CCN(CCCC(=O)c3ccc(F)cc3)CC1)N=N2 | 74.7 µM | 90.6 µM | > 100 µM | 40.5 µM | 45.7 µM | 97.7 µM | > 100 µM | – | 39.8 µM | 25.3 µM | > 100 µM | > 100 µM | 39.8 µM | 57.9 µM |
| O=C1CSC(c2ccc([N+](=O)[O-])cc2)N1c1ccc(-c2ccc(-n3c(-c4ccccc4)nc4ccccc4c3=O)cc2)cc1 (centres undefined) | > 100 µM | > 100 µM | > 100 µM | > 100 µM | > 100 µM | > 100 µM | > 100 µM | > 100 µM | > 100 µM | 62 µM | > 100 µM | > 100 µM | – | > 100 µM |
| CCN(CC)CC1CN=C(N)O1 (centres undefined) | > 100 µM | > 100 µM | > 100 µM | > 100 µM | > 100 µM | > 100 µM | > 100 µM | > 100 µM | > 100 µM | > 100 µM | – | > 100 µM | > 100 µM | > 100 µM |
| Cc1nc2ccc(F)cc2c(Cl)c1CCCl | > 100 µM | – | > 100 µM | 90.1 µM | 73.8 µM | > 100 µM | > 100 µM | > 100 µM | – | 52.7 µM | – | > 100 µM | > 100 µM | > 100 µM |
| CCC(CC)(CO)CNc1cc(Cl)nc(N)n1 | > 100 µM | > 100 µM | > 100 µM | > 100 µM | > 100 µM | > 100 µM | > 100 µM | > 100 µM | > 100 µM | > 100 µM | > 100 µM | – | > 100 µM | > 100 µM |
| CCN(CC)CCn1c(=O)c2c(C)c3oc4ccccc4oc3c(C)c2c1=O | > 100 µM | > 100 µM | > 100 µM | > 100 µM | > 100 µM | – | > 100 µM | > 100 µM | > 100 µM | > 100 µM | > 100 µM | > 100 µM | > 100 µM | > 100 µM |
| Cc1ccc(-c2cc[n+]3c(n2)oc2ccccc23)cc1 | 76.6 µM | > 100 µM | 47.3 µM | > 100 µM | > 100 µM | > 100 µM | > 100 µM | 41.2 µM | 46.6 µM | – | > 100 µM | > 100 µM | 65.3 µM | > 100 µM |
| COC(=O)C(Cc1c[nH]c2ccccc12)NP(=O)(O)OCC1OC(n2cc(Br)c(=O)[nH]c2=O)CC1O (centres undefined) | > 100 µM | – | > 100 µM | > 100 µM | > 100 µM | > 100 µM | > 100 µM | > 100 µM | > 100 µM | > 100 µM | > 100 µM | > 100 µM | > 100 µM | > 100 µM |
| O=C1CC(=O)NC(=NN2C(=O)CSC2C(=O)c2ccco2)N1 (centres undefined) | > 100 µM | > 100 µM | > 100 µM | > 100 µM | > 100 µM | > 100 µM | > 100 µM | > 100 µM | > 100 µM | > 100 µM | > 100 µM | – | > 100 µM | > 100 µM |
| O=C(O)c1c2c(cc3c1CC1(Cc4cc5c(cc4C1=O)CCC5)C3)CCC2 (centres undefined) | > 100 µM | – | > 100 µM | > 100 µM | > 100 µM | > 100 µM | > 100 µM | > 100 µM | > 100 µM | > 100 µM | > 100 µM | > 100 µM | > 100 µM | > 100 µM |
| CCOC(=O)[C@@]1(C)CC(O)C(=O)N1C (some centres undefined) | > 100 µM | > 100 µM | > 100 µM | > 100 µM | > 100 µM | > 100 µM | > 100 µM | > 100 µM | > 100 µM | > 100 µM | > 100 µM | > 100 µM | – | > 100 µM |
| CCCCSC1=N/C(=C\c2ccc(N(C)C)cc2)C(=O)N1 | > 100 µM | > 100 µM | 96.2 µM | > 100 µM | 75.8 µM | > 100 µM | > 100 µM | > 100 µM | – | > 100 µM | > 100 µM | > 100 µM | > 100 µM | > 100 µM |
| Cc1cc(Nc2ccc(NS(C)(=O)=O)cc2)c2c(ccc3nccc32)[nH]1 | 43.9 µM | 96.6 µM | 65.6 µM | 36.2 µM | 33.4 µM | 49.6 µM | > 100 µM | > 100 µM | 30.5 µM | 29.1 µM | – | 48.8 µM | – | > 100 µM |
| CCN(CC)c1ccc(/C=C2\CCc3ccc([N+](=O)[O-])cc3C2=O)cc1 | > 100 µM | > 100 µM | > 100 µM | > 100 µM | > 100 µM | > 100 µM | > 30.7 µM | > 100 µM | – | > 100 µM | > 100 µM | > 30.1 µM | 24.3 µM | > 100 µM |
| O=c1[nH]nc(Nc2ccccc2)c2nnn(C3CCCCC3)c12 | > 100 µM | > 100 µM | > 100 µM | > 100 µM | > 100 µM | > 100 µM | > 100 µM | > 100 µM | > 100 µM | > 100 µM | – | > 100 µM | – | – |
| O=C(CN1CCCCC1)Nc1ccc2c(c1)C1Oc3ccccc3CC1CO2 (centres undefined) | 44.6 µM | > 100 µM | 54.7 µM | 44.1 µM | 36.8 µM | > 100 µM | 88.3 µM | > 100 µM | 35.5 µM | 26.7 µM | 81.9 µM | – | – | 39.7 µM |
| COC(=O)C(=O)C(C(=O)C(=O)Nc1ccccc1OC)c1nc2ccc([N+](=O)[O-])cc2[nH]c1=O (centres undefined) | > 100 µM | > 100 µM | > 100 µM | > 100 µM | > 100 µM | – | > 100 µM | > 100 µM | > 100 µM | > 100 µM | > 100 µM | > 100 µM | > 100 µM | > 100 µM |
| CC1(C)C2CCC1C(=O)[C@@]1(C=CC(=O)CC1)C2 (some centres undefined) | > 100 µM | – | > 100 µM | > 100 µM | > 100 µM | > 100 µM | > 100 µM | > 100 µM | – | > 100 µM | > 100 µM | > 100 µM | > 100 µM | > 100 µM |
